According to ChEMBL document CHEMBL4002623, “Synthesis and in vitro activity of dicationic indolyl diphenyl ethers as novel potent antibiotic agents against drug-resistant bacteria” (Bioorg Med Chem Lett, 2017):

Columns and labels:
Staphylococcus aureus [1] = experiment: Antibacterial activity against methicillin-sensitive Staphylococcus aureus ATCC 29213 by agar dilution method; type: functional
Staphylococcus aureus [2] = experiment: Antibacterial activity against methicillin-resistant Staphylococcus aureus 09-13 by agar dilution method; type: functional
[3] = tested on: Staphylococcus epidermidis; experiment: Antibacterial activity against methicillin-sensitive Staphylococcus epidermidis ATCC 12228 by agar dilution method; type: functional
[4] = tested on: Staphylococcus epidermidis; experiment: Antibacterial activity against methicillin-resistant Staphylococcus epidermidis 09-3 by agar dilution method; type: functional
Enterococcus faecalis [5] = experiment: Antibacterial activity against vancomycin-sensitive Enterococcus faecalis ATCC 29212 by agar dilution method; type: functional
Enterococcus faecalis [6] = experiment: Antibacterial activity against vancomycin-resistant Enterococcus faecalis 09-9 by agar dilution method; type: functional
Enterococcus faecium [7] = experiment: Antibacterial activity against vancomycin-resistant Enterococcus faecium ATCC 700221 by agar dilution method; type: functional
Escherichia coli [8] = experiment: Antibacterial activity against extended-spectrum beta-lactamase-negative Escherichia coli ATCC 25922 by agar dilution method; type: functional
Escherichia coli [9] = experiment: Antibacterial activity against extended-spectrum beta-lactamase-positive Escherichia coli 09-1 by agar dilution method; type: functional
Klebsiella pneumoniae [10] = experiment: Antibacterial activity against extended-spectrum beta-lactamase-negative Klebsiella pneumoniae 7 by agar dilution method; type: functional
Klebsiella pneumoniae [11] = experiment: Antibacterial activity against extended-spectrum beta-lactamase-positive Klebsiella pneumoniae 09-25 by agar dilution method; type: functional
Klebsiella pneumoniae [12] = experiment: Antibacterial activity against Klebsiella pneumoniae ATCC BAA-2146 expressing NDM-1 by agar dilution method; type: functional
[13] = Cytotoxicity against HEK293T cells after 48 hrs by MTS assay; type: cell-based, HEK-293T; settings: human
Enterococcus faecium [14] = experiment: Antibacterial activity against vancomycin-sensitive Enterococcus faecium 09-10 by agar dilution method; type: functional
Staphylococcus aureus [15] = experiment: Antibacterial activity against methicillin-resistant Staphylococcus aureus ATCC 33591 by agar dilution method; type: functional
Staphylococcus aureus [16] = experiment: Antibacterial activity against methicillin-sensitive Staphylococcus aureus 15 by agar dilution method; type: functional
Staphylococcus aureus [17] = experiment: Antibacterial activity against methicillin-sensitive Staphylococcus aureus 09-6 by agar dilution method; type: functional
[18] = tested on: Staphylococcus epidermidis; experiment: Antibacterial activity against methicillin-sensitive Staphylococcus epidermidis 09-9 by agar dilution method; type: functional
Enterococcus faecalis [19] = experiment: Antibacterial activity against vancomycin-resistant Enterococcus faecalis ATCC 51299 by agar dilution method; type: functional
Enterococcus faecalis [20] = experiment: Antibacterial activity against vancomycin-sensitive Enterococcus faecalis 09-8 by agar dilution method; type: functional
Enterococcus faecium [21] = experiment: Antibacterial activity against vancomycin-resistant Enterococcus faecium 05-8 by agar dilution method; type: functional
Escherichia coli [22] = experiment: Antibacterial activity against extended-spectrum beta-lactamase-negative Escherichia coli 1515 by agar dilution method; type: functional
Escherichia coli [23] = experiment: Antibacterial activity against extended-spectrum beta-lactamase-negative Escherichia coli 09-20 by agar dilution method; type: functional
Klebsiella pneumoniae [24] = experiment: Antibacterial activity against extended-spectrum beta-lactamase-positive Klebsiella pneumoniae ATCC 700603 by agar dilution method; type: functional
Klebsiella pneumoniae [25] = experiment: Antibacterial activity against extended-spectrum beta-lactamase-negative Klebsiella pneumoniae 09-8 by agar dilution method; type: functional
Pseudomonas aeruginosa [26] = experiment: Antibacterial activity against Pseudomonas aeruginosa ATCC 27853 by agar dilution method; type: functional
Pseudomonas aeruginosa [27] = experiment: Antibacterial activity against Pseudomonas aeruginosa PAO1 by agar dilution method; type: functional
Pseudomonas aeruginosa [28] = experiment: Antibacterial activity against Pseudomonas aeruginosa 09-14 by agar dilution method; type: functional
[29] = tested on: Acinetobacter calcoaceticus; experiment: Antibacterial activity against Acinetobacter calcoaceticus ATCC 19606 by agar dilution method; type: functional
Enterobacter cloacae = experiment: Antibacterial activity against Enterobacter cloacae 45301 by agar dilution method; type: functional
Klebsiella aerogenes = experiment: Antibacterial activity against Enterobacter aerogenes 45102 by agar dilution method; type: functional
Serratia marcescens = experiment: Antibacterial activity against Serratia marcescens 41002 by agar dilution method; type: functional
Morganella morganii = experiment: Antibacterial activity against Morganella morganii ATCC 25830 by agar dilution method; type: functional
Providencia rettgeri = experiment: Antibacterial activity against Providencia rettgeri ATCC 31052 by agar dilution method; type: functional
Proteus vulgaris = experiment: Antibacterial activity against Proteus vulgaris ATCC 29905 by agar dilution method; type: functional
Proteus mirabilis = experiment: Antibacterial activity against Proteus mirabilis 09-1 by agar dilution method; type: functional
Salmonella typhi = experiment: Antibacterial activity against Salmonella typhi H901 by agar dilution method; type: functional, Salmonella enterica subsp. enterica serovar Typhi; settings: Salmonella enterica
Citrobacter freundii = experiment: Antibacterial activity against Citrobacter freundii ATCC 43864 by agar dilution method; type: functional
Staphylococcus aureus [30] = experiment: Potency index, ratio of levofloxacin MIC to test compound MIC for methicillin-resistant Staphylococcus aureus 09-13; type: functional
[31] = tested on: Staphylococcus epidermidis; experiment: Potency index, ratio of levofloxacin MIC to test compound MIC for methicillin-resistant Staphylococcus epidermidis 09-3; type: functional
Enterococcus faecalis [32] = experiment: Potency index, ratio of levofloxacin MIC to test compound MIC for vancomycin-resistant Enterococcus faecalis 09-9; type: functional
Enterococcus faecium [33] = experiment: Potency index, ratio of levofloxacin MIC to test compound MIC for vancomycin-resistant Enterococcus faecium ATCC 700221; type: functional
Klebsiella pneumoniae [34] = experiment: Potency index, ratio of levofloxacin MIC to test compound MIC for Klebsiella pneumoniae ATCC BAA-2146 expressing NDM-1; type: functional
Staphylococcus aureus [35] = experiment: Potency index, ratio of vancomycin MIC to test compound MIC for methicillin-resistant Staphylococcus aureus 09-13; type: functional
[36] = tested on: Staphylococcus epidermidis; experiment: Potency index, ratio of vancomycin MIC to test compound MIC for methicillin-resistant Staphylococcus epidermidis 09-3; type: functional
Enterococcus faecalis [37] = experiment: Potency index, ratio of vancomycin MIC to test compound MIC for vancomycin-resistant Enterococcus faecalis 09-9; type: functional
Enterococcus faecium [38] = experiment: Potency index, ratio of vancomycin MIC to test compound MIC for vancomycin-resistant Enterococcus faecium ATCC 700221; type: functional

N=C(c1ccc2cc(-c3ccc(Oc4ccc(-c5cc6ccc(C(=N)N7CCC7)cc6[nH]5)cc4)cc3)[nH]c2c1)N1CCC1
8 µg/mL: MIC (Enterococcus faecalis [6]) | MIC (Enterococcus faecium [14]) | MIC (Morganella morganii)
64 to 128 µg/mL: MIC (Klebsiella pneumoniae [11]) | MIC (Klebsiella pneumoniae [12])
64 µg/mL: MIC (Escherichia coli [9]) | MIC (Klebsiella pneumoniae [10]) | MIC (Escherichia coli [22]) | MIC (Escherichia coli [23]) | MIC (Klebsiella pneumoniae [24]) | MIC (Klebsiella pneumoniae [25]) | MIC (Klebsiella aerogenes) | MIC (Citrobacter freundii)
4 - 8: Ratio (Staphylococcus aureus [30]) | Ratio [31]
0.5 µg/mL: MIC (Staphylococcus aureus [2]) | MIC [4] | MIC (Staphylococcus aureus [15]) | MIC (Staphylococcus aureus [16]) | MIC [18]
16 - 64: Ratio (Enterococcus faecalis [32]) | Ratio (Enterococcus faecium [33])
0.125 µg/mL: MIC [3]
32 µg/mL: MIC (Salmonella typhi)
128 µg/mL: MIC (Pseudomonas aeruginosa [26]) | MIC (Serratia marcescens) | MIC (Proteus vulgaris) | MIC (Proteus mirabilis)
> 128 µg/mL: MIC (Pseudomonas aeruginosa [27]) | MIC (Pseudomonas aeruginosa [28]) | MIC [29] | MIC (Enterobacter cloacae) | MIC (Providencia rettgeri)
16 µg/mL: MIC (Escherichia coli [8])
2 µg/mL: MIC (Staphylococcus aureus [1]) | MIC (Enterococcus faecalis [5]) | MIC (Enterococcus faecium [7]) | MIC (Staphylococcus aureus [17]) | MIC (Enterococcus faecalis [19]) | MIC (Enterococcus faecalis [20]) | MIC (Enterococcus faecium [21])
21.6 µg/mL: CC50 at 48 h [13]

CN(C)C(=N)c1ccc2cc(-c3ccc(Oc4ccc(-c5cc6ccc(C(=N)N(C)C)cc6[nH]5)cc4)cc3)[nH]c2c1
0.5 µg/mL: MIC (Enterococcus faecalis [5])
>16: Ratio (Klebsiella pneumoniae [34])
0.25 µg/mL: MIC (Staphylococcus aureus [1]) | MIC (Staphylococcus aureus [2]) | MIC [4] | MIC (Staphylococcus aureus [15]) | MIC (Staphylococcus aureus [16]) | MIC (Staphylococcus aureus [17]) | MIC [18]
16 µg/mL: MIC (Salmonella typhi)
1 µg/mL: MIC (Enterococcus faecalis [19])
64 µg/mL: MIC (Enterobacter cloacae)
> 128 µg/mL: MIC (Pseudomonas aeruginosa [27]) | MIC (Pseudomonas aeruginosa [28]) | MIC [29] | MIC (Morganella morganii)
4 µg/mL: MIC (Escherichia coli [8]) | MIC (Escherichia coli [22])
0.125 µg/mL: MIC [3]
32 µg/mL: MIC (Serratia marcescens) | MIC (Proteus mirabilis)
21.6 µg/mL: CC50 at 48 h [13]
8 µg/mL: MIC (Escherichia coli [9]) | MIC (Klebsiella pneumoniae [10]) | MIC (Klebsiella pneumoniae [11]) | MIC (Klebsiella pneumoniae [12]) | MIC (Escherichia coli [23]) | MIC (Klebsiella pneumoniae [24]) | MIC (Klebsiella pneumoniae [25]) | MIC (Klebsiella aerogenes) | MIC (Providencia rettgeri) | MIC (Proteus vulgaris) | MIC (Citrobacter freundii)
128 µg/mL: MIC (Pseudomonas aeruginosa [26])
2 µg/mL: MIC (Enterococcus faecalis [6]) | MIC (Enterococcus faecium [7]) | MIC (Enterococcus faecium [14]) | MIC (Enterococcus faecalis [20]) | MIC (Enterococcus faecium [21])

CNC(=N)c1ccc2cc(-c3ccc(Oc4ccc(-c5cc6ccc(C(=N)NC)cc6[nH]5)cc4)cc3)[nH]c2c1
16 - 32: Ratio (Staphylococcus aureus [30]) | Ratio [31]
1 µg/mL: MIC (Staphylococcus aureus [1]) | MIC (Enterococcus faecalis [5]) | MIC (Enterococcus faecalis [6]) | MIC (Enterococcus faecium [14]) | MIC (Staphylococcus aureus [15]) | MIC (Staphylococcus aureus [16]) | MIC (Staphylococcus aureus [17]) | MIC [18] | MIC (Enterococcus faecalis [19]) | MIC (Enterococcus faecalis [20])
0.5 µg/mL: MIC (Staphylococcus aureus [2]) | MIC [4] | MIC (Enterococcus faecium [7])
0.25 µg/mL: MIC [3]
4 - 8: Ratio (Staphylococcus aureus [35]) | Ratio [36]
128 µg/mL: MIC (Escherichia coli [8]) | MIC (Escherichia coli [9]) | MIC (Escherichia coli [22]) | MIC (Morganella morganii) | MIC (Salmonella typhi)
2 µg/mL: MIC (Enterococcus faecium [21])
12.2 µg/mL: CC50 at 48 h [13]
> 128 µg/mL: MIC (Klebsiella pneumoniae [10]) | MIC (Klebsiella pneumoniae [11]) | MIC (Klebsiella pneumoniae [12]) | MIC (Escherichia coli [23]) | MIC (Klebsiella pneumoniae [24]) | MIC (Klebsiella pneumoniae [25]) | MIC (Pseudomonas aeruginosa [26]) | MIC (Pseudomonas aeruginosa [27]) | MIC (Pseudomonas aeruginosa [28]) | MIC [29] | MIC (Enterobacter cloacae) | MIC (Klebsiella aerogenes) | MIC (Serratia marcescens) | MIC (Providencia rettgeri) | MIC (Proteus vulgaris) | MIC (Proteus mirabilis) | MIC (Citrobacter freundii)
128 - 256: Ratio (Enterococcus faecalis [37]) | Ratio (Enterococcus faecium [38])
